BindingDB's records for doi:10.7270/Q2251GJ9 (The Scripps Research Institute Molecular Screening Center, 2007)
Structures can show the parent of a compound that is named as a salt.

Biological target: Sphingosine 1-phosphate receptor 1 (Homo sapiens, UniProt P21453)
Assay: S1P1 receptor agonists, dose response, cell-based, agonist mode, 60K MLSMR set (AID 468)
[1] = inactive by the depositor's call

Chain of Sphingosine 1-phosphate receptor 1 (P21453 whole entry): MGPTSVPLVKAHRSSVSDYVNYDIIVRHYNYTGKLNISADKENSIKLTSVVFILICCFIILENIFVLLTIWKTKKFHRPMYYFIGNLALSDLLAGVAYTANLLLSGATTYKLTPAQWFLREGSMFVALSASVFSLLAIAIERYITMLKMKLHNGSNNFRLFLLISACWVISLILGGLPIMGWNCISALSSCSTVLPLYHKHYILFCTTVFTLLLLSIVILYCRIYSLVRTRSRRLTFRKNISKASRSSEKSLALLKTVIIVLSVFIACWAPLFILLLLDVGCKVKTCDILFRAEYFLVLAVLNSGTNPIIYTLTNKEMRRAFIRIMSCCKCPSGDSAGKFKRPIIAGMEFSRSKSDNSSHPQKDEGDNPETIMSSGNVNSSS

Compound: O=C(OC1CCCCC1)c1ccc(NC(=O)c2ccco2)cc1 [4-(2-furoylamino)benzoic acid cyclohexyl ester]
- EC50 [1]: 13.4 µM

Compound: Oc1nnc(Sc2ncnc3sccc23)n1CCc1ccccc1 [4-(2-phenylethyl)-3-(4-thieno[2,3-d]pyrimidinylthio)-1H-1,2,4-triazol-5-one]
- EC50 [1]: 16.9 µM

Compound: O=C(NCc1ccccc1)N1CCN(c2ccc(Cl)c(Cl)c2)CC1 [4-(3,4-dichlorophenyl)-N-(phenylmethyl)-1-piperazinecarboxamide]
- EC50: 7.15 µM

Compound: CC(=O)c1ccc(NC(=O)N2CCN(c3cccc(Cl)c3)CC2)cc1 [4-(3-chlorophenyl)-N-(4-ethanoylphenyl)piperazine-1-carboxamide]
- EC50: 9.76 µM

Compound: c1ccc(N2CCN(c3ncnc4c3oc3ccccc34)CC2)cc1 [4-(4-phenyl-1-piperazinyl)benzofuro[3,2-d]pyrimidine]
- EC50: > 95 µM

Compound: CCOc1cc(C2NCc3ccccc3-n3cccc32)ccc1O (stereo not given) [4-(5,6-dihydro-4H-pyrrolo[1,2-a][1,4]benzodiazepin-4-yl)-2-ethoxy-phenol;hydrochloride]
- EC50: 16.1 µM

Compound: Oc1ccc(-c2nnc(SCC3CCCCC3)o2)cc1 [4-(5-Cyclohexylmethylsulfanyl-[1,3,4]oxadiazol-2-yl)-phenol]
- EC50: 0.552 µM

Compound: CC(C)c1ccc2oc(-c3ccc(N)cc3)nc2c1 [4-(5-propan-2-yl-1,3-benzoxazol-2-yl)aniline]
- EC50: 2.64 µM

Compound: Cc1nc2sccn2c1-c1csc(NCc2ccccc2)n1 [4-(6-methyl-5-imidazo[2,1-b]thiazolyl)-N-(phenylmethyl)-2-thiazolamine]
- EC50: 2.77 µM

Compound: O=C(Nc1nccs1)c1ccc(S(=O)(=O)NCC2CCCCC2)cc1 [4-(Cyclohexylmethyl-sulfamoyl)-N-thiazol-2-yl-benzamide]
- EC50: 8.02 µM

Compound: Cc1ccc2[nH]c3c(N4CCCCCC4)ncnc3c2c1 [4-(azepan-1-yl)-8-methyl-5H-pyrimido[5,4-b]indole]
- EC50: 4.15 µM

Compound: CCOC(=O)c1cnc(-n2nc(C)cc2C)nc1NC1CCCCC1 [4-(cyclohexylamino)-2-(3,5-dimethyl-1-pyrazolyl)-5-pyrimidinecarboxylic acid ethyl ester]
- EC50: 6.37 µM

Compound: CN(C)S(=O)(=O)c1ccc(C(=O)Nc2nc(-c3cccs3)cs2)cc1 [4-(dimethylsulfamoyl)-N-(4-thiophen-2-yl-1,3-thiazol-2-yl)benzamide]
- EC50: > 10 µM

Compound: CCN(C1CCCCC1)S(=O)(=O)c1ccc(S(=O)(=O)NCc2ccncc2)cc1 [4-N-cyclohexyl-4-N-ethyl-1-N-(pyridin-4-ylmethyl)benzene-1,4-disulfonamide]
- EC50: 5.55 µM

Compound: CCOC(=O)N1CCN(C(=O)C2CCN(c3ncnc4c3sc3cccc(F)c34)CC2)CC1 [4-[1-(9-fluorobenzothiopheno[3,2-d]pyrimidin-4-yl)isonipecotoyl]piperazine-1-carboxylic acid ethyl ester]
- EC50: 5.92 µM

Compound: Cc1ccc(Cl)cc1N1CCN(C(=O)COc2ccc(S(=O)(=O)NC(C)C)cc2)CC1 [4-[2-[4-(5-chloranyl-2-methyl-phenyl)piperazin-1-yl]-2-oxidanylidene-ethoxy]-N-propan-2-yl-benzenesulfonamide]
- EC50 [1]: 12 µM

Compound: CCCOC(=O)c1ccc(OCC(O)Cn2c(C)nc3ccccc32)cc1 (stereo not given) [4-[2-hydroxy-3-(2-methyl-1-benzimidazolyl)propoxy]benzoic acid propyl ester]
- EC50: 8.15 µM

Compound: COC(=O)c1ccc(OCC(O)Cn2nnc3ccccc32)cc1 (stereo not given) [4-[3-(1-benzotriazolyl)-2-hydroxypropoxy]benzoic acid methyl ester]
- EC50: > 95 µM

Compound: Cc1ccccc1-c1noc(-c2ccc(O)cc2)n1 [4-[3-(2-methylphenyl)-2H-1,2,4-oxadiazol-5-ylidene]-1-cyclohexa-2,5-dienone]
- EC50: 8.46 µM

Compound: O=C(c1cc(-c2ccc(O)cc2)on1)N1CCc2ccccc2C1 [4-[3-(3,4-dihydro-1H-isoquinolin-2-ylcarbonyl)-2H-1,2-oxazol-5-ylidene]cyclohexa-2,5-dien-1-one]
- EC50: 5.24 µM
